This passage reports IC50 results from patent publication US7803801B2, “Aminopyridine compounds having Syk inhibitory activity” (Japan Tobacco, Inc., priority 2005, dated 2010).

Assay [1] has as its system cultured human mast cells. Description: Degranulation inhibition test using cultured human mast cells (IgE cross-linking, β-Hexosaminidase release). It is filed as cell-based. To be noted: Mast cell; Tables 1-x, compounds A; cultured human mast cells; read-out: human degranulation ave. IC50. In short, it runs like this:
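Degranulation was triggered by anti-hIgE (10 μg/mL final, 30 min, 37 °C) after a 10-min compound pretreatment (DMSO 0.1%) of cord-blood CD34+-derived mast cells primed 5 days with IL-4 and IgE. β-Hexosaminidase in supernatant was measured with p-nitrophenyl-GlcNAc substrate (A405), expressed against water-lysed total; IC50 (M).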

For assay [2], the target named is GST-Syk Full Protein (human) (Homo sapiens, UniProt P43405). Description: Syk kinase inhibition test (HTRF method). To be noted: Tables 1-x, compounds A; read-out: sykHTRF ave IC50. It is filed as biochemical. An outline of the steps: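 HTRF read-out: after EDTA termination and 1 h with XL665-streptavidin and Eu-anti-phosphotyrosine, the 665/620 nm ratio was measured. The reaction ran 30 min at 20–25 °C with final 6.4 nM human GST-Syk, 250 nM biotinylated peptide, 100 μM ATP, pH 7.0 HEPES buffer, 2% DMSO.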
On the technique in general: TR-FRET usually uses a lanthanide donor and a delayed reading to cut background.

As a reminder, the IC50 is the midpoint of a concentration-inhibition curve.

In the case of `CNC(=O)C1(C)CCN(c2ncc(-c3cccc(Nc4cc(C)ccn4)n3)s2)CC1` [Compound A-501, N-methyl-4-methyl-1-{5-[6-(4-methylpyridin-2-ylamino)pyridin-2-yl]thiazol-2-yl}piperidine-4-carboxamide], the IC50 in assay [1] is 100 to 1000 nM; in assay [2], < 100 nM.
The matching figures for `CNC(=O)COCC1CCCN(c2ncc(-c3cccc(Nc4cc(C)ccn4)n3)s2)C1` (centres unmarked) [Compound A-502, N-methyl-2-(1-{5-[6-(4-methylpyridin-2-ylamino)pyridin-2-yl]thiazol-2-yl}piperidin-3-ylmethoxy)acetamide]: 100 to 1000 nM and < 100 nM.
As for `Cc1ccnc(Nc2cccc(-c3cnc(N4CCC(C)(C(=O)NCCO)CC4)s3)n2)c1` [Compound A-503, N-(2-hydroxyethyl)-4-methyl-1-{5-[6-(4-methylpyridin-2-ylamino)pyridin-2-yl]thiazol-2-yl}-piperidine-4-carboxamide], the IC50 is 100 to 1000 nM in assay [1] and < 100 nM in assay [2].
As to `Cc1ccnc(Nc2cccc(-c3cnc(N4CCC(CC(N)=O)CC4)s3)n2)c1` [Compound A-504, 2-(1-{5-[6-(4-methylpyridin-2-ylamino)pyridin-2-yl]thiazol-2-yl}piperidin-4-yl)acetamide], the IC50 in assay [1] is 100 to 1000 nM; in assay [2], < 100 nM.
Take `CNC(=O)CC1CCN(c2ncc(-c3cccc(Nc4cc(C)ccn4)n3)s2)CC1` [Compound A-505, N-methyl-2-(1-{5-[6-(4-methylpyridin-2-ylamino)pyridin-2-yl]thiazol-2-yl}piperidin-4-yl)acetamide]: the IC50 was 100 to 1000 nM in assay [1] and < 100 nM in assay [2].
`Cc1ccnc(Nc2cccc(-c3cnc(N4CCC(CC(=O)NCCO)CC4)s3)n2)c1` [Compound A-506, N-(2-hydroxyethyl)-2-(1-{5-[6-(4-methylpyridin-2-ylamino)pyridin-2-yl]thiazol-2-yl}piperidin-4-yl)acetamide]: the IC50 in assay [1] was 100 to 1000 nM; in assay [2], < 100 nM.
For the compound `CC(=O)NCCN(C)c1ncc(-c2cccc(Nc3cc(C)ccn3)n2)s1` [Compound A-508, N-[2-(N′-methyl-N′-{5-[6-(4-methylpyridin-2-ylamino)pyridin-2-yl]thiazol-2-yl}amino)ethyl]acetamide], the IC50 in assay [1] is 100 to 1000 nM; in assay [2] it was < 100 nM.
For the compound `Cc1ccnc(Nc2cccc(-c3cnc(N(C)CCNC(=O)CO)s3)n2)c1` [Compound A-509, 2-hydroxy-N-[2-(N′-methyl-{5-[6-(4-methylpyridin-2-ylamino)pyridin-2-yl]thiazol-2-yl}amino)ethyl]acetamide], the IC50 is 100 to 1000 nM in assay [1] and < 100 nM in assay [2].
Turning to `Cc1ccnc(Nc2cccc(-c3cnc(N(C)C4CCN(C(=O)c5ccc(O)cc5)CC4)s3)n2)c1` [Compound A-513, (4-hydroxyphenyl)-[4-(N-methyl-N-{5-[6-(4-methylpyridin-2-ylamino)pyridin-2-yl]thiazol-2-yl}amino)piperidin-1-yl]methanone], the figures for the IC50 in assay [1] and in assay [2] were 100 to 1000 nM and < 100 nM, respectively.
The matching figures for `CC(=O)N1CCC(Nc2ncc(-c3cccc(Nc4cc(C)ccn4)n3)s2)CC1` [Compound A-514, 1-(4-{5-[6-(4-methylpyridin-2-ylamino)pyridin-2-yl]thiazol-2-ylamino}piperidin-1-yl)ethanone]: 100 to 1000 nM and < 100 nM.
For `CC(=O)N1CCC(N(c2ncc(-c3cccc(Nc4cc(C)ccn4)n3)s2)C(C)C)CC1` [Compound A-515, 1-[4-(N-isopropyl-N-{5-[6-(4-methylpyridin-2-ylamino)pyridin-2-yl]thiazol-2-yl}amino)piperidin-1-yl]ethanone], the IC50 in assay [1] is > 1000 nM; in assay [2], < 100 nM.
Take `CNC(=O)CO[C@@H]1CCN(c2ncc(-c3cccc(Nc4cc(C)ccn4)n3)s2)C1` [Compound A-516, N-methyl-2-((R)-1-{5-[6-(4-methylpyridin-2-ylamino)pyridin-2-yl]thiazol-2-yl}pyrrolidin-3-yloxy)acetamide]: the concentration for half-maximal inhibition (IC50) was 100 to 1000 nM in assay [1] and < 100 nM in assay [2].
Consider `COc1ccnc(Nc2cccc(-c3cnc(N4CCC(C(N)=O)CC4)s3)n2)c1` [Compound A-517, 1-{5-[6-(4-methoxypyridin-2-ylamino)pyridin-2-yl]thiazol-2-yl}piperidine-4-carboxamide], for which the values for the IC50 in assay [1] and in assay [2] were 100 to 1000 nM and < 100 nM, respectively.
The matching figures for `NC(=O)C1CCN(c2ncc(-c3cccc(Nc4cc(Cl)ccn4)n3)s2)CC1` [Compound A-518, 1-{5-[6-(4-chloropyridin-2-ylamino)pyridin-2-yl]thiazol-2-yl}piperidine-4-carboxamide]: < 100 nM and < 100 nM.
The matching figures for `Cc1ccnc(Nc2cccc(-c3cnc(N(C)CCO)s3)n2)c1` [Compound A-519, 2-(N-methyl-N-{5-[6-(4-methylpyridin-2-ylamino)pyridin-2-yl]thiazol-2-yl}amino)ethanol]: < 100 nM and < 100 nM.
Turning to `COCCN(C)c1ncc(-c2cccc(Nc3cc(C)ccn3)n2)s1` [Compound A-520, N-(2-methoxyethyl)-N-methyl-N-{5-[6-(4-methylpyridin-2-ylamino)pyridin-2-yl]thiazol-2-yl}amine], the IC50 in assay [1] was 100 to 1000 nM; in assay [2], < 100 nM.
`CC(=O)N1CCC(N(CCNS(C)(=O)=O)c2ncc(-c3cccc(Nc4cc(C)ccn4)n3)s2)CC1` [Compound A-524, N-[2-(N′-(1-acetylpiperidin-4-yl)-N′-{5-[6-(4-methylpyridin-2-ylamino)pyridin-2-yl]thiazol-2-yl}amino)ethyl]methanesulfonamide]: the IC50 in assay [1] is > 1000 nM; in assay [2], < 100 nM.
In the case of `CC(=O)N1CCC(N(CCO)c2ncc(-c3cccc(Nc4cc(C)ccn4)n3)s2)CC1` [Compound A-525, 1-[4-(N-(2-hydroxyethyl)-N-{5-[6-(4-methylpyridin-2-ylamino)pyridin-2-yl]thiazol-2-yl}amino)piperidin-1-yl]ethanone], the IC50 in assay [1] is 100 to 1000 nM; in assay [2], < 100 nM.
Turning to `COCCN(c1ncc(-c2cccc(Nc3cc(C)ccn3)n2)s1)C1CCN(C(C)=O)CC1` [Compound A-526, 1-[4-(N-(2-methoxyethyl)-N-{5-[6-(4-methylpyridin-2-ylamino)pyridin-2-yl]thiazol-2-yl}amino)piperidin-1-yl]ethanone], the IC50 is 100 to 1000 nM in assay [1] and < 100 nM in assay [2].
As to `Cc1ccnc(Nc2cccc(-c3cnc(N4CCC[C@H]4C(N)=O)s3)n2)c1` [Compound A-528, (S)-1-{5-[6-(4-methylpyridin-2-ylamino)pyridin-2-yl]thiazol-2-yl}pyrrolidine-2-carboxamide], the IC50 in assay [1] and in assay [2] was < 100 nM throughout.
Regarding `Cc1ccnc(Nc2cccc(-c3cnc(N4CCC[C@H]4C(=O)NCC(F)(F)F)s3)n2)c1` [Compound A-530, N-(2,2,2-trifluoroethyl)-(S)-1-{5-[6-(4-methylpyridin-2-ylamino)pyridin-2-yl]thiazol-2-yl}pyrrolidine-2-carboxamide], the IC50 is 100 to 1000 nM in assay [1] and < 100 nM in assay [2].
As to `Cc1ccnc(Nc2cccc(-c3cnc(N4CCC[C@@H](C(=O)O)C4)s3)n2)c1` [Compound A-531, (R)-1-{5-[6-(4-methylpyridin-2-ylamino)pyridin-2-yl]thiazol-2-yl}piperidine-3-carboxylic acid], the results for the concentration for half-maximal inhibition (IC50) in assay [1] and in assay [2] were 100 to 1000 nM and < 100 nM, respectively.
The matching figures for `Cc1ccnc(Nc2cccc(-c3cnc(N4CCC[C@@H](CO)C4)s3)n2)c1` [Compound A-532, ((R)-1-{5-[6-(4-methylpyridin-2-ylamino)pyridin-2-yl]thiazol-2-yl}piperidin-3-yl)methanol]: < 100 nM and < 100 nM.
The corresponding values for `Cc1ccnc(Nc2cccc(-c3cnc(N4CCC[C@@H](C(N)=O)C4)s3)n2)c1` [Compound A-533, (R)-1-{5-[6-(4-methylpyridin-2-ylamino)pyridin-2-yl]thiazol-2-yl}piperidine-3-carboxamide] are 100 to 1000 nM and < 100 nM.
For `CCN(c1ncc(-c2cccc(Nc3cc(C)ccn3)n2)s1)C1CCN(C(C)=O)CC1` [Compound A-534, 1-[4-(N-ethyl-N-{5-[6-(4-methylpyridin-2-ylamino)pyridin-2-yl]thiazol-2-yl}amino)piperidin-1-yl]ethanone], the IC50 in assay [1] is 100 to 1000 nM; in assay [2] it was < 100 nM.
As to `CC(=O)N1CCC(N(CC(F)(F)F)c2ncc(-c3cccc(Nc4cc(C)ccn4)n3)s2)CC1` [Compound A-535, 1-{4-[N-{5-[6-(4-methylpyridin-2-ylamino)pyridin-2-yl]thiazol-2-yl}-N-(2,2,2-trifluoroethyl)amino]piperidin-1-yl}ethanone], the values for the IC50 in assay [1] and in assay [2] were > 1000 nM and < 100 nM, respectively.
In the case of `CC(=O)N1CCC(N(C)c2ncc(-c3cccc(Nc4cc(Cl)ccn4)n3)s2)CC1` [Compound A-536, 1-[4-(N-{5-[6-(4-chloropyridin-2-ylamino)pyridin-2-yl]thiazol-2-yl}-N-methylamino)piperidin-1-yl]ethanone], the IC50 in assay [1] was 100 to 1000 nM; in assay [2], < 100 nM.
In the case of `CN(c1ncc(-c2cccc(Nc3cc(Cl)ccn3)n2)s1)C1CCN(C(=O)CO)CC1` [Compound A-537, 1-[4-(N-{5-[6-(4-chloropyridin-2-ylamino)pyridin-2-yl]thiazol-2-yl}-N-methylamino)piperidin-1-yl]-2-hydroxyethanone], the results for the IC50 in assay [1] and in assay [2] were 100 to 1000 nM and < 100 nM, respectively.
